# Laboratory results as given in patent US5976523A, “Method for healing compromised tissues using pyrimidine derivatives” (Mitsui Pharmaceuticals, Inc., priority 1995, dated 1999).
# Where a name gives a salt, the structure may show the parent alone.
# Tests used:
# [1] = system: PDGF-A mRNAs; test: Northern blot analysis of PDGF-A mRNA expression in cultured rat SMCs; assay type: cell-based
# Method: SMCs were prepared following the method proposed by Ross and Klebanoff in "J. Cell. Biol.", 50, 159 ff, 1971 with partial modifications. A rat thoracic aorta was excised. After the tunica externa was peeled off, the tunica media and the tunica intima were minced into 2-3 mm^2. The minced sections were placed standstill in a 25-cm^2 flask which contained Waymouth's MB 752/1 medium containing 10% FBS and 80 ng/ml of gentamycin (product of Schering-Plough Corp.), followed by incubation at 37° C. for 2 to 3 weeks in the presence of 5% carbon dioxide gas (primary culture). The same volume of a trypsin-EDTA solution was added to the flask. After the sections were treated at 37° C. for 5 minutes to peel off cells, the cells were diluted with 10% FBS-Waymouth's MB 752/1 medium and then subcultured (second generation). Subculture was successively conducted likewise whenever the SMC became confluent. In the following experiments, the cells from the 5th generation to the 12th generation were employed.
# After reach in confluence of cells, the cultured SMCs were cultured for 2 days in a serum-free medium to avoid influence of serum. The SMCs were then added with thrombin (1.0 U/ml) or serotonin (5 μM), followed by incubation at 37° C. for 6 hours under which bring about induction of PDGF-A mRNAs at the maximum. To prevent dissociation of ribosomes and mRNAs, cycloheximide (100 μg/ml) was added 5 minutes before cells were collected.
# Preparation of a polysome fraction and extraction of RNAs were conducted following the method proposed by Kasper, et al. in "J. Biol. Chem.", 267, 508 ff, 1992 with slight modifications. The cells, which had been collected by the treatment with trypsin, were washed with PBS containing cycloheximide (100 μg/ml). A cell precipitate was then added with 500 μl of a high-salt lysis buffer (20 mM Tris-HCl pH 7.5, 250 mM NaCl, 5 mM MgCl2, 0.1% Noni det P-40, 0.2% DOC) for homogenization. The homogenate was centrifuged under 12,000×g at 4° C. for 10 minutes. The resulting supernatant was added with 67 μl of a heparine mix (7.4 mg/ml heparine, 1.1M NaCl, 15 mM DTT and RNasin). 200 μl of the extract were layered on 5 ml of 0.5-1.25M linear sucrose gradient (which contained 20 mM Tris-HCl pH 7.4, 10 mM NaCl, 3 mM MgCl2), followed by centrifugation under 45,000 rpm for 90 minutes in a "Hitachi RP55ST". While monitoring the absorbance at 260 nm, ten (10) fractions were obtained. To prepare samples for the extraction of RNAs, the fractions were individually added with SDS and proteinase K to give final concentrations of 1% and 0.2 mg/ml, respectively. Subsequent to incubation at 37° C. for 1 hour, each fraction was extracted once with 1/2 volume of phenol, twice with 1/2 volume aliquots of chloroform, and once with the equal volume of chloroform, whereby proteins were removed. The water layer was added with glycogen (20 μg/ml) as a coprecipitant and then with 0.03M of sodium acetate, and RNAs were caused to precipitate with 2 volumes of ethanol.
# After RNAs were incubated at 65° C. for 5 minutes in a solution containing 60% of formamide, 5.9% of formaldehyde and the equal volume of MOPS buffer (10 mM MOPS pH 7.0, 4 mM NaOAc, 0.5 mM EDTA), electrophoresis was conducted across 1.2% agarose gels containing the equal volume of MOPS buffer so that RNAs were. isolated. After the gel was washed with 20 volumes of SSC, RNAs were blotted overnight to a Gene Screen Plus membrane by the capillary method. Fixing of the RNAs was conducted by exposing them for 1 minute at a distance of 10 cm from a 15-W sterilamp. Using a "QuickHyb Hybridization Solution" (product of Strategene Ltd.), hybridization was conducted following the instruction manual attached to the solution. Results of autoradiography were quantitated with reference to the NIH Image. […]
# [2] = system: CAMs (chorioallantoic membranes); test: Angiogenesis on chorioallantoic membranes (CAM); assay type: in vivo, chick; conditions: for number of new blood vessels (M±SE): day 3
# Method: For a bFGF, various assay systems assessing the angiogenesis activity of the bFGF as an index are usable. The shells of chick embryos are fenestrated centrally corresponding to the air spaces thereof, whereby the chorioallantoic membranes (CAMS) are exposed. Solutions of the bFGF and a test medicament at various concentrations were applied onto the respective CAMs. Incubation was continued. Several days later, the degrees of angiogenesis were investigated under a microscope. This method is preferably employed. […] The test medicament is therefore found to be useful for the reduction of a time required for the construction of a skin-equivalent tissue. […] Also with respect to a VEGF, its angiogenesis activity can be assayed in a similar system.
# The shells of eggs on the 10th day after fertilization were fenestrated centrally corresponding to air spaces thereof, whereby CAMs (chorioallantoic membranes) were exposed. A nylon film in the form of a square of 3 mm in side was placed over the CAM, and onto the nylon film, a solution of bFGF as a growth and/or differentiation factor or the pyrimidine compound according to the present invention was dropped in an amount of 8 ul. Incubation was continued at 38° C. On the 72nd hour, the eggs were moved to a cool place controlled at 4° C. After the eggs were left over for 2 to 3 hours there, the degree of angiogenesis in each egg was investigated under a microscope. The angiogenesis was determined based on the number of radial blood vessels equal to or larger than 0.1 mm in diameter. Onto the nylon disk placed over the CAMS, 1, 10, and 100 ng/ml solutions of recombinant human bFGF (product of Genzyme Corporation) in physiological saline and 0.01 to 1 mM solutions of the individual pyrimidine compound in physiological saline were applied singly or in combination.
compound,measurement,setting,value
"CN1Cc2nc(N3CCNCC3)ncc2C1=O [Compound B, 2-piperazino-6-methyl-5-oxo-5,6-dihydro(7H)pyrro[3,4-d]pyrimidine maleate]",fold induction at 100 µM,"[1]; Rattus norvegicus, 6 h, read-out: expression amount of 1.7 kb PDGF-A mRNAs compared with control",1.4
same,band of 1.3 kb PDGF-A,[1]; addition of compound,additionally detected
same,2.3 kb PDGF-A mRNAs,[1]; compound 0.1 mM + thrombin,in greater amounts
same,2.9 kb PDGF-A mRNAs,[1]; compound 0.1 mM + thrombin,in greater amounts
same,number of new vessels (M±SE),[2]; bFGF (concentration not stated) + 0.01 mM compound,8.1±1.1
same,number of new vessels (M±SE),[2]; bFGF (concentration not stated) + 0.1 mM compound,8.5±0.8
same,number of new vessels (M±SE),[2]; bFGF (concentration not stated) + 1 mM compound,9.3±0.5
same,angiogenesis ability of bFGF,[2]; bFGF + compound,synergistically enhanced
same,number of new blood vessels (M±SE),[2]; compound alone 0.01 mM,3.5±0.9
same,number of new blood vessels (M±SE),[2]; compound alone 0.1 mM,3.4±0.5
same,number of new blood vessels (M±SE),[2]; compound alone 1 mM,4.4±0.7
